SMILES strings stand for the structures.

As a reminder, the EC50 is the midpoint of the concentration-response curve.

The assay deals with T1, human GPR119 (Homo sapiens, UniProt Q8TDV5).
T1 construct: expressed in transfected cells
T1 sequence (Q8TDV5 1-335): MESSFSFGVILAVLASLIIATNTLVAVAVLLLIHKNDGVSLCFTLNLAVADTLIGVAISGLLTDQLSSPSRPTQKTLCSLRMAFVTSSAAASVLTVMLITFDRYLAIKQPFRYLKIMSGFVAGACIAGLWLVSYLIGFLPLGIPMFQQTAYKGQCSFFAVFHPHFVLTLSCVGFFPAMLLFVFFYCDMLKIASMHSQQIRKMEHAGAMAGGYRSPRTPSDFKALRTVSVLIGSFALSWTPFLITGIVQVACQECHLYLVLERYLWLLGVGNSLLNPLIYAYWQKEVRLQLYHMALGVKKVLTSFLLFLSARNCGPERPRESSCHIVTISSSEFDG
Nature of the assay: Functional cellular assay measuring GPR119-mediated cAMP release (HTRF) in HEK-293 cells stably expressing recombinant human GPR119. The class given is cell-based. The following applies: cAMP response, cell line expressing human GPR119, 30 minutes at room temperature. The procedure:
Functional Cellular Assays Measuring GPR119-Mediated cAMP Release
Compounds of the invention, which are agonists of GPR119, were characterized by functional assays measuring the cAMP response of HEK-293 cell lines stably expressing recombinant GPR119 from man, mouse or rat, or by using a hamster cell line HIT-T15 expressing GPR119 endogenously. The cAMP content was determined using a kit based on homogenous time-resolved fluorescence (HTRF) from Cisbio Corp. (cat. no. 62AM4PEC). For preparation, cells were split into T175 culture flasks and grown to near confluency in medium (DMEM/10% FCS for HEK-293 cells, and F-12K medium/10% horse serum/2.5% FCS for HIT-T15 cells, respectively). Medium was then removed and cells washed with PBS lacking calcium and magnesium ions, followed by proteinase treatment with accutase (Sigma-Aldrich, cat. no. A6964). Detached cells were washed and resuspended in assay buffer (1×HBSS; 20 mM HEPES, 0.1% BSA, 2 mM IBMX) and cellular density determined. They were then diluted to 400000 cells/mL and 25 μL-aliquots dispensed to the wells of 96-well plates. For measurement, 25 μL of test compound in assay buffer was added and incubated for 30 minutes at room temperature. After addition of HTRF reagents diluted in lysis buffer, the plates were incubated for 1 hour, followed by measuring the fluorescence ratio at 665 vs. 620 nm. Potency of the agonists was quantified by determining the concentrations that caused 50% of the maximal response/activation (EC50). See Table 7 for exemplary data obtained using the cell line expressing human GPR119.
For orientation: In TR-FRET formats the signal depends on donor and acceptor labels being close together.
With `CN(C)C(=O)C1NC(=O)c2cc(N3CC[C@@H](Oc4ccc(OCC5CC5)nc4)C3=O)ccc2N1C` (single isomer, unassigned) [Example 1-41], the EC50 is 2030 nM. Turning to `CN(C)C(=O)C1NC(=O)c2cc(N3CC[C@@H](Oc4ccc(OCC5CC5)nc4)C3=O)ccc2N1C` (single isomer, unassigned) [Example 1-42], the EC50 worked out at 366 nM. Regarding `CC(C)(C)OC(=O)CN1Cc2c(F)cc(N3CC[C@@H](Oc4ccc(OCC5CC5)nc4)C3=O)cc2C1=O` [Example 1-01, Tert-butyl 2-[6-[(3R)-3-[[6-(cyclopropylmethoxy)-3-pyridyl]oxy]-2-oxo-pyrrolidin-1-yl]-4-fluoro-1-oxo-isoindolin-2-yl]acetate], the EC50 worked out at 89 nM. The value for `CC(C(=O)O)N1Cc2ccc(N3CC[C@@H](Oc4ccc(OCC5CC5)nc4)C3=O)cc2C1=O` (stereo partly drawn) [Example 1-02, 2-[6-[(3R)-3-[[6-(cyclopropylmethoxy)-3-pyridyl]oxy]-2-oxo-pyrrolidin-1-yl]-1-oxo-isoindolin-2-yl]propanoic acid] was 2030 nM.

As for `CN1C(=O)c2cc(N3CC[C@@H](Oc4ccc(OCC5CC5)nc4)C3=O)ccc2C1CC(=O)O` (stereo partly drawn) [Example 1-03, 2-[5-[(3R)-3-[[6-(cyclopropylmethoxy)-3-pyridyl]oxy]-2-oxo-pyrrolidin-1-yl]-2-methyl-3-oxo-isoindolin-1-yl]acetic acid], the concentration for a half-maximal effect (EC50) was determined as 10900 nM. The value for `COC(=O)C(C)N1Cc2ccc(N3CC[C@@H](Oc4ccc(OCC5CC5)nc4)C3=O)cc2C1=O` (stereo partly drawn) [Example 1-04, methyl 2-[6-[(3R)-3-[[6-(cyclopropylmethoxy)-3-pyridyl]oxy]-2-oxo-pyrrolidin-1-yl]-1-oxo-isoindolin-2-yl]propanoate] was 540 nM. Regarding `COC(=O)CC1c2ccc(N3CC[C@@H](Oc4ccc(OCC5CC5)nc4)C3=O)cc2C(=O)N1C` (stereo partly drawn) [Example 1-05, methyl 2-[5-[(3R)-3-[[6-(cyclopropylmethoxy)-3-pyridyl]oxy]-2-oxo-pyrrolidin-1-yl]-2-methyl-3-oxo-isoindolin-1-yl]acetate], the EC50 is 313 nM.

For the compound `O=C1OCCC1N1Cc2ccc(N3CC[C@@H](Oc4ccc(OCC5CC5)nc4)C3=O)cc2C1=O` (stereo partly drawn) [Example 1-06, 6-[(3R)-3-[[6-(cyclopropylmethoxy)-3-pyridyl]oxy]-2-oxo-pyrrolidin-1-yl]-2-(2-oxotetrahydrofuran-3-yl)isoindolin-1-one], the EC50 amounted to 151 nM.

Consider `CN(C)C(=O)CC1c2ccc(N3CC[C@@H](Oc4ccc(OCC5CC5)nc4)C3=O)cc2C(=O)N1C` (stereo partly drawn) [Example 1-07, 2-[5-[(3R)-3-[[6-(cyclopropylmethoxy)-3-pyridyl]oxy]-2-oxo-pyrrolidin-1-yl]-2-methyl-3-oxo-isoindolin-1-yl]-N,N-dimethyl-acetamide], for which the EC50 was 1900 nM.

Regarding `CCCN1Cc2ccc(N3CC[C@@H](Oc4ccc(OCC5CC5)nc4)C3=O)cc2C1=O` [Example 1-08, 6-[(3R)-3-[[6-(cyclopropylmethoxy)-3-pyridyl]oxy]-2-oxo-pyrrolidin-1-yl]-2-propyl-isoindolin-1-one], the EC50 was determined as 1050 nM. Regarding `CC(C)Sc1ccc(O[C@@H]2CCN(c3ccc4c(c3)C(=O)N(CC(=O)N(C)C)C4)C2=O)cn1` [Example 1-09, 2-[6-[(3R)-3-[(6-isopropylsulfanyl-3-pyridyl)oxy]-2-oxo-pyrrolidin-1-yl]-1-oxo-isoindolin-2-yl]-N,N-dimethyl-acetamide], the EC50 was 163 nM. As to `Cn1nnc(N2Cc3ccc(N4CC[C@@H](Oc5ccc(OCC6CC6)nc5)C4=O)cc3C2=O)n1` [Example 1-10, 6-[(3R)-3-[[6-(cyclopropylmethoxy)-3-pyridyl]oxy]-2-oxo-pyrrolidin-1-yl]-2-(2-methyltetrazol-5-yl)isoindolin-1-one], the EC50 amounted to 267 nM.

Turning to `CN(C)C(=O)CN1Cc2ncc(N3CC[C@@H](Oc4ccc(OCC5CC5)nc4)C3=O)cc2C1=O` [Example 1-11, 2-[3-[(3R)-3-[[6-(cyclopropylmethoxy)-3-pyridyl]oxy]-2-oxo-pyrrolidin-1-yl]-5-oxo-7H-pyrrolo[3,4-b]pyridin-6-yl]-N,N-dimethyl-acetamide], the EC50 was determined as 202 nM. In the case of `CN(C)C(=O)CN1C(=O)c2cc(N3CC[C@@H](Oc4ccc(OCC5CC5)nc4)C3=O)ccc2C1(C)C` [Example 1-12, 2-[5-[(3R)-3-[[6-(cyclopropylmethoxy)-3-pyridyl]oxy]-2-oxo-pyrrolidin-1-yl]-1,1-dimethyl-3-oxo-isoindolin-2-yl]-N,N-dimethyl-acetamide], the EC50 was found to be 29400 nM. With `CC1c2ccc(N3CC[C@@H](Oc4ccc(OCC5CC5)nc4)C3=O)cc2C(=O)N1CC(=O)N(C)C` (stereo partly drawn) [Example 1-13, 2-[5-[(3R)-3-[[6-(cyclopropylmethoxy)-3-pyridyl]oxy]-2-oxo-pyrrolidin-1-yl]-1-methyl-3-oxo-isoindolin-2-yl]-N,N-dimethyl-acetamide] the figure was 237 nM. The value for `CC1c2ccc(N3CC[C@@H](Oc4ccc(OCC5CC5)nc4)C3=O)cc2C(=O)N1CC(=O)O` (stereo partly drawn) [Example 1-14, 2-[5-[(3R)-3-[[6-(cyclopropylmethoxy)-3-pyridyl]oxy]-2-oxo-pyrrolidin-1-yl]-1-methyl-3-oxo-isoindolin-2-yl]acetic acid] was 4440 nM; that for `COC(=O)CN1C(=O)c2cc(N3CC[C@@H](Oc4ccc(OCC5CC5)nc4)C3=O)ccc2C1C` (stereo partly drawn) [Example 1-15, methyl 2-[5-[(3R)-3-[[6-(cyclopropylmethoxy)-3-pyridyl]oxy]-2-oxo-pyrrolidin-1-yl]-1-methyl-3-oxo-isoindolin-2-yl]acetate] was 221 nM.

For `CN(C)C(=O)CN1Cc2ncc(N3CC[C@@H](Oc4ccc(C(=O)CC5CC5)cc4)C3=O)cc2C1=O` [Example 1-16, 2-[3-[(3R)-3-[4-(2-cyclopropylacetyl)phenoxy]-2-oxo-pyrrolidin-1-yl]-5-oxo-7H-pyrrolo[3,4-b]pyridin-6-yl]-N,N-dimethyl-acetamide], the half-maximal effective concentration (EC50) was determined as 360 nM. Consider `CS(=O)(=O)CN1Cc2c(F)cc(N3CC[C@@H](Oc4ccc(OCC5CC5)nc4)C3=O)cc2C1=O` [Example 1-17, 6-[(3R)-3-[[6-(cyclopropylmethoxy)-3-pyridyl]oxy]-2-oxo-pyrrolidin-1-yl]-4-fluoro-2-(methylsulfonylmethyl)isoindolin-1-one], for which the half-maximal effective concentration (EC50) stood at 30 nM. With `Cn1nnc(CN2Cc3c(F)cc(N4CC[C@@H](Oc5ccc(OCC6CC6)nc5)C4=O)cc3C2=O)n1` [Example 1-18, 6-[(3R)-3-[[6-(cyclopropylmethoxy)-3-pyridyl]oxy]-2-oxo-pyrrolidin-1-yl]-4-fluoro-2-[(2-methyltetrazol-5-yl)methyl]isoindolin-1-one] the figure was 65 nM; with `C[S+]([O-])CN1Cc2c(F)cc(N3CC[C@@H](Oc4ccc(OCC5CC5)nc4)C3=O)cc2C1=O` (stereo partly drawn) [Example 1-19, 6-[(3R)-3-[[6-(cyclopropylmethoxy)-3-pyridyl]oxy]-2-oxo-pyrrolidin-1-yl]-4-fluoro-2-(methylsulfinylmethyl)isoindolin-1-one], 71 nM; with `CSCN1Cc2c(F)cc(N3CC[C@@H](Oc4ccc(OCC5CC5)nc4)C3=O)cc2C1=O` [Example 1-20, 6-[(3R)-3-[[6-(cyclopropylmethoxy)-3-pyridyl]oxy]-2-oxo-pyrrolidin-1-yl]-4-fluoro-2-(methylsulfanylmethyl)isoindolin-1-one], 46 nM.

Consider `CN(C)C(=O)CN1Cc2c(F)cc(N3CC[C@@H](Oc4ccc(OC5CC5)nc4)C3=O)cc2C1=O` [Example 1-21, 2-[6-[(3R)-3-[[6-(cyclopropoxy)-3-pyridyl]oxy]-2-oxo-pyrrolidin-1-yl]-4-fluoro-1-oxo-isoindolin-2-yl]-N,N-dimethyl-acetamide], for which the EC50 turned out to be 346 nM. The value for `COC(=O)CN1Cc2ccc(N3CC[C@@H](Oc4ccc(OC5CC5)nc4)C3=O)cc2C1=O` [Example 1-22, methyl 2-[6-[(3R)-3-[[6-(cyclopropoxy)-3-pyridyl]oxy]-2-oxo-pyrrolidin-1-yl]-1-oxo-isoindolin-2-yl]acetate] was 242 nM. With `CN1Cc2c(F)cc(N3CC[C@@H](Oc4ccc(OCC5CC5)nc4)C3=O)cc2C1=O` [Example 1-23, 6-[(3R)-3-[[6-(cyclopropylmethoxy)-3-pyridyl]oxy]-2-oxo-pyrrolidin-1-yl]-4-fluoro-2-methyl-isoindolin-1-one] the figure was 695 nM.

As to `O=C1[C@H](Oc2ccc(OCC3CC3)nc2)CCN1c1ccc2[nH][nH]c(=O)c2c1` [Example 1-24, 5-[(3R)-3-[[6-(cyclopropylmethoxy)-3-pyridyl]oxy]-2-oxo-pyrrolidin-1-yl]-1,2-dihydroindazol-3-one], the EC50 turned out to be 14300 nM.

The values are drawn from patent US9908868B2, “Isoindolinone compounds as GPR119 modulators for the treatment of diabetes, obesity, dyslipidemia and related disorders” (SANOFI, priority 2014, dated 2018).
